Test results as given in publication doi:10.1101/2023.03.24.534094v2 (biorxiv, 2023).
Read-outs that look alike come from different tables or passages of the source. Each block holds one compound with its values, some of them ahead of it.

Experiments:
Assay in all cases: biochemical
AAK1 = AAK1 (Homo sapiens, UniProt Q2M2I8)
ABL1 = ABL1 (Homo sapiens, UniProt P00519)
BRAF = BRAF (Homo sapiens, UniProt P15056)
CaMK1d = CaMK1d (Homo sapiens, UniProt Q8IU85)
DRAK1 = molecular target: T1, DRAK1 (Homo sapiens, UniProt Q9UEE5)
T1 sequence (Q9UEE5 1-414): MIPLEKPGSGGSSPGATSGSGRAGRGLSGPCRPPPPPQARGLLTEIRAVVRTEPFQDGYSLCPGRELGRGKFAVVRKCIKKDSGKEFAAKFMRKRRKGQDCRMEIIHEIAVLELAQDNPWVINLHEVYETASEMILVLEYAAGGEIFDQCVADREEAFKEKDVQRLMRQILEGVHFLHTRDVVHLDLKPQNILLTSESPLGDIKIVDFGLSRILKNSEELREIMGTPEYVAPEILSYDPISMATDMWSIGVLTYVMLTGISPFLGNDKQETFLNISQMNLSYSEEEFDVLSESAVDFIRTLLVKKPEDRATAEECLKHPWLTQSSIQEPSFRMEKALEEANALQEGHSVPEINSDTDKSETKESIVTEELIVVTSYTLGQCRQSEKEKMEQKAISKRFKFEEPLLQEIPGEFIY

DRAK2 = molecular target: T2, DRAK2 (Homo sapiens, UniProt O94768)
T2 sequence (O94768 1-372): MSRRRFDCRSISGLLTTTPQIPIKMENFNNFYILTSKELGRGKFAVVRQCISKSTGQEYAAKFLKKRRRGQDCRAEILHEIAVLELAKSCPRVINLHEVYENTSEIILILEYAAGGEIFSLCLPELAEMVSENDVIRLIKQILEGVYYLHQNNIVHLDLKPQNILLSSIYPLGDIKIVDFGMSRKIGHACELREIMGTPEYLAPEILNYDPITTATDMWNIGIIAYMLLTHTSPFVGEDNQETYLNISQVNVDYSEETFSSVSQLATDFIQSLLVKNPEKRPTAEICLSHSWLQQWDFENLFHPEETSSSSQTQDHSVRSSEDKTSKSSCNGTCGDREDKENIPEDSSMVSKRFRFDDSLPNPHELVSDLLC

JNK1 = JNK1 (Homo sapiens, UniProt P45983)
LOK = LOK (Homo sapiens, UniProt O94804)
VRK1 = molecular target: T3, VRK1 (Homo sapiens, UniProt Q99986)
T3 sequence (Q99986 1-396): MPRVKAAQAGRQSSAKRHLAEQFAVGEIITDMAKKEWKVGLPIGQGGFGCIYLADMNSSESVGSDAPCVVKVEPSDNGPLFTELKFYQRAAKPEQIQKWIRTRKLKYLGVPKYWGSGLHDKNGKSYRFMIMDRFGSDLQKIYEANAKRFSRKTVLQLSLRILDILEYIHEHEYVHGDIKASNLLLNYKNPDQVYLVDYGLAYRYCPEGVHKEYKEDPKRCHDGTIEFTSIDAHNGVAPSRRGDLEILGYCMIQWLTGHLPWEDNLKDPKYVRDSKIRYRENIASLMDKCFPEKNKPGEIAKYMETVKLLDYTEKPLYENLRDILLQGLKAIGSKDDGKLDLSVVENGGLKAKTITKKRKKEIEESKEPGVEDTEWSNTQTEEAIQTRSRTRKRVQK

DCAMKL1 = molecular target: T4, DCAMKL1 (Homo sapiens, UniProt O15075)
T4 sequence (O15075 1-740): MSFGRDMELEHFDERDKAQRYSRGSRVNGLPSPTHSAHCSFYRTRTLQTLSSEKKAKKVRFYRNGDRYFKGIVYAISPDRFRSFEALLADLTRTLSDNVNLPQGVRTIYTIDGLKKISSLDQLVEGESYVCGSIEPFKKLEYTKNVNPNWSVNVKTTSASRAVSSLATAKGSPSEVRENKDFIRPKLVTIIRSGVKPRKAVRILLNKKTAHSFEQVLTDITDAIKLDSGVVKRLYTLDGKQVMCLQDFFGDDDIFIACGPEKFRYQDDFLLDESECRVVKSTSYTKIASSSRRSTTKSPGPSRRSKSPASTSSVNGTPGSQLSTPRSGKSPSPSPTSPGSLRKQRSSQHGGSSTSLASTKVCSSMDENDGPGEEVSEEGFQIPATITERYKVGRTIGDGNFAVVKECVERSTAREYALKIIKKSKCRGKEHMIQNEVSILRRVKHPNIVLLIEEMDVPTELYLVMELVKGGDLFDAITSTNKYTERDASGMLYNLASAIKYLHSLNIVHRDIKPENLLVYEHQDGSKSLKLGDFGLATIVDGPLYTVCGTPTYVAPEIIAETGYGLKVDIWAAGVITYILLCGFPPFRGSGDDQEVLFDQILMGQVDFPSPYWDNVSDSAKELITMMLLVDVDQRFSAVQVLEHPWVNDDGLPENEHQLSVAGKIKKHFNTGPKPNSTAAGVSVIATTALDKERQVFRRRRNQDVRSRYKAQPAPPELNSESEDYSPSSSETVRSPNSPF

FES = FES (Homo sapiens, UniProt P07332)
Chain of FES (P07332 whole entry): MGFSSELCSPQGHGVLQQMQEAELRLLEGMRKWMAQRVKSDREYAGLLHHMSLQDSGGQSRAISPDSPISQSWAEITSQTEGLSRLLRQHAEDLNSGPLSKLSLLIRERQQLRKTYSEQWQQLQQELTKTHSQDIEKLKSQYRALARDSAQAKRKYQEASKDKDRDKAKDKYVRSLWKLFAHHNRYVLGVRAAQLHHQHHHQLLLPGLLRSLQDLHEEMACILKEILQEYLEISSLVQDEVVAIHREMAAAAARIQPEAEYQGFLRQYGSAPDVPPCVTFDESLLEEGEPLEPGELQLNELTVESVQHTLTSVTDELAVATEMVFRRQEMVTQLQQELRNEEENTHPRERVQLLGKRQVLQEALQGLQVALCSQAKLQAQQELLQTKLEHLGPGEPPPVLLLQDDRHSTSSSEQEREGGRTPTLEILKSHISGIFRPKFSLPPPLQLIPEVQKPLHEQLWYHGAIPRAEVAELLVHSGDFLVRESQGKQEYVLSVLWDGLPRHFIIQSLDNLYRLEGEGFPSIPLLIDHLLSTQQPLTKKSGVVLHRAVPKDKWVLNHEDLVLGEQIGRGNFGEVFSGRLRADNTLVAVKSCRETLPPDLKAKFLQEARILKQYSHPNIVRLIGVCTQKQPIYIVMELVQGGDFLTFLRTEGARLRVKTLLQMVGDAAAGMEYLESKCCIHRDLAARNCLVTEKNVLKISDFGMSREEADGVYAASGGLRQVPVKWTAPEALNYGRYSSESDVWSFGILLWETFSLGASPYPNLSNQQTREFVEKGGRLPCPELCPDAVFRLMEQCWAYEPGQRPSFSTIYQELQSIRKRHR

Chain of JNK1 (P45983 whole entry): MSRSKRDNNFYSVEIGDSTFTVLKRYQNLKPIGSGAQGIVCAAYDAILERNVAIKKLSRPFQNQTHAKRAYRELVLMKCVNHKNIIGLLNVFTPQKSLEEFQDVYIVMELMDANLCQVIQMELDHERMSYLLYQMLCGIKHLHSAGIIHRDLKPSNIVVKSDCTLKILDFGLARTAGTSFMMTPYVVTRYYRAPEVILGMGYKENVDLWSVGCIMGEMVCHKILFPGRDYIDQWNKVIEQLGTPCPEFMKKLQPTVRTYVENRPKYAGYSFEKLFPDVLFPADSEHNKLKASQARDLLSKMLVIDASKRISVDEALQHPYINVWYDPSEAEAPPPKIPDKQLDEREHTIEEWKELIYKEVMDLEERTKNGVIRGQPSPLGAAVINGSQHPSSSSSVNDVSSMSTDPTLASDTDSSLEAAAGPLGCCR
Chain of LOK (O94804 whole entry): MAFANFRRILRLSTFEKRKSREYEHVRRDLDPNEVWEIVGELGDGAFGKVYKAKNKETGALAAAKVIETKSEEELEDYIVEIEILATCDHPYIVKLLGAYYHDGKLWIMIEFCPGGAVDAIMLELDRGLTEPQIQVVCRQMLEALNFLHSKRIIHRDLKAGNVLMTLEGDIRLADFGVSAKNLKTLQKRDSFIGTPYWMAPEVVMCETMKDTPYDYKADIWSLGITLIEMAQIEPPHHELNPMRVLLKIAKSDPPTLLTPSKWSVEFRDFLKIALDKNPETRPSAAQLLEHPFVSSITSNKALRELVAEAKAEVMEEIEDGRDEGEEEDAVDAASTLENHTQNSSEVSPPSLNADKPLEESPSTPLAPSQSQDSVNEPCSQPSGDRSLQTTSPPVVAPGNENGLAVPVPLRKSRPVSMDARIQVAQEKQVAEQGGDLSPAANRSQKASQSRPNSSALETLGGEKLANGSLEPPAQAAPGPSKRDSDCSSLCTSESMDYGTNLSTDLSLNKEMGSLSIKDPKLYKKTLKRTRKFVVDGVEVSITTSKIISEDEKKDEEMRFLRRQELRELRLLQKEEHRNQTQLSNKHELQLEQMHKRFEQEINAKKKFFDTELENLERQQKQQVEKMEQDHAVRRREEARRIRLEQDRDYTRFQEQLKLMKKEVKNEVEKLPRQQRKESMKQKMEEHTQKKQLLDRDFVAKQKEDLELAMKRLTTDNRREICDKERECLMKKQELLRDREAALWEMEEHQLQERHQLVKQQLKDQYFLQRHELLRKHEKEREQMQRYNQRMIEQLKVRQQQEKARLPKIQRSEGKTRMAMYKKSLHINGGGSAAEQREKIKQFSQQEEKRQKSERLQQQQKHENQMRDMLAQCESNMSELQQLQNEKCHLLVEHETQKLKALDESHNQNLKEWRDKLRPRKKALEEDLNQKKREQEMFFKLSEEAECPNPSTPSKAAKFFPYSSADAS
Chain of ABL1 (P00519 whole entry): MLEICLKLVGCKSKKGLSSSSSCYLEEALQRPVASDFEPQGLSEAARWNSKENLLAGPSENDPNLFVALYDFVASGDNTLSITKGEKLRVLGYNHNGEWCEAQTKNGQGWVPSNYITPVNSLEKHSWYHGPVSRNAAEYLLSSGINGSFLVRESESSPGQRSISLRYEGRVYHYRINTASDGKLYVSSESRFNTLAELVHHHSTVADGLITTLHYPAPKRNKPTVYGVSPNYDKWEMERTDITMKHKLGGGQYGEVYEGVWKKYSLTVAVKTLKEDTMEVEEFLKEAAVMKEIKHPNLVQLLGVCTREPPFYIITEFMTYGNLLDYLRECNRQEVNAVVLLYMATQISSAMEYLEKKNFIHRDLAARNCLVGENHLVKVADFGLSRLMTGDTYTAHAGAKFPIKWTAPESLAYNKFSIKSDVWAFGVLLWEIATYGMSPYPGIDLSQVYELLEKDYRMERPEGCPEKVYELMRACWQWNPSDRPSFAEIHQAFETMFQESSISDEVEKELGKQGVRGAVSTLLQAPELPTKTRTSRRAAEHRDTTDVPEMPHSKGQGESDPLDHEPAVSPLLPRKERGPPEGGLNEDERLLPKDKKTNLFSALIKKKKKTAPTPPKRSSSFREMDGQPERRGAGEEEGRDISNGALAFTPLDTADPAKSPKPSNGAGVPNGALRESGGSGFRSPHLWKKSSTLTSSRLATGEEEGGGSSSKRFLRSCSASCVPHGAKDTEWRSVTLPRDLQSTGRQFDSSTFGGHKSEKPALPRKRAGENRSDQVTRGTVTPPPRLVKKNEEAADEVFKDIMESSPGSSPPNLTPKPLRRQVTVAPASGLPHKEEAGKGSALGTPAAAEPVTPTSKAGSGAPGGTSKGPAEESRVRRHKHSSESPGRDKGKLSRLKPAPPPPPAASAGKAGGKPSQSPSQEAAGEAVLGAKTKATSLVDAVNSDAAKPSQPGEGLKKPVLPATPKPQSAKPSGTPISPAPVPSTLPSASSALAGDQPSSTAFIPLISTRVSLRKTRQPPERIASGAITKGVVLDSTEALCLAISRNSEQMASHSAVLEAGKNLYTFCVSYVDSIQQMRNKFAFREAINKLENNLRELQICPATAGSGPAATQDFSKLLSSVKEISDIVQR
Chain of AAK1 (Q2M2I8 whole entry): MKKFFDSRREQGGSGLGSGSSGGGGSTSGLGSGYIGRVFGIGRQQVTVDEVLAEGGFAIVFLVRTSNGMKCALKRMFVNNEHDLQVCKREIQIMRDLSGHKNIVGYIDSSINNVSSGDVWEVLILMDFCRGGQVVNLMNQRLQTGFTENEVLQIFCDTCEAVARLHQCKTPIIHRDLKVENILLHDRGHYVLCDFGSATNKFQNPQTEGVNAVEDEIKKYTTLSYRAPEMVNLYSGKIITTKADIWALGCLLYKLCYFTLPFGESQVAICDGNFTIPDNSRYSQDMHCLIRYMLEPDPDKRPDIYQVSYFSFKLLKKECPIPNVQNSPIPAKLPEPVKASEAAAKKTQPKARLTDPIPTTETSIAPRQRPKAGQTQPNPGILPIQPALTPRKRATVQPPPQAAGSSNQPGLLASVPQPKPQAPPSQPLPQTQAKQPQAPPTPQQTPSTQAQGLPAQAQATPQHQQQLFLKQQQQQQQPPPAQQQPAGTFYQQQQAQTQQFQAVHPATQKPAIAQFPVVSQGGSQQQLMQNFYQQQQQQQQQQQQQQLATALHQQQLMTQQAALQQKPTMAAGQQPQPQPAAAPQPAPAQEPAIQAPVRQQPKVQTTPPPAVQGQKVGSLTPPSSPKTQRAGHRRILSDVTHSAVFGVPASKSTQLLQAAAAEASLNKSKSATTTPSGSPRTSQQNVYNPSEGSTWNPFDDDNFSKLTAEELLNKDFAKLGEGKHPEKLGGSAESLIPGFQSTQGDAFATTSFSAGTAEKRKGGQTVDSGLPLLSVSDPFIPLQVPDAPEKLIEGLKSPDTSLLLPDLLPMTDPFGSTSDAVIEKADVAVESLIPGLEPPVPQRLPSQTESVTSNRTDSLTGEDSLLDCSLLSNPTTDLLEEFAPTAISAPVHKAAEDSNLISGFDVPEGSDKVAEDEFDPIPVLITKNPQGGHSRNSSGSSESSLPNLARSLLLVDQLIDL
Chain of BRAF (P15056 whole entry): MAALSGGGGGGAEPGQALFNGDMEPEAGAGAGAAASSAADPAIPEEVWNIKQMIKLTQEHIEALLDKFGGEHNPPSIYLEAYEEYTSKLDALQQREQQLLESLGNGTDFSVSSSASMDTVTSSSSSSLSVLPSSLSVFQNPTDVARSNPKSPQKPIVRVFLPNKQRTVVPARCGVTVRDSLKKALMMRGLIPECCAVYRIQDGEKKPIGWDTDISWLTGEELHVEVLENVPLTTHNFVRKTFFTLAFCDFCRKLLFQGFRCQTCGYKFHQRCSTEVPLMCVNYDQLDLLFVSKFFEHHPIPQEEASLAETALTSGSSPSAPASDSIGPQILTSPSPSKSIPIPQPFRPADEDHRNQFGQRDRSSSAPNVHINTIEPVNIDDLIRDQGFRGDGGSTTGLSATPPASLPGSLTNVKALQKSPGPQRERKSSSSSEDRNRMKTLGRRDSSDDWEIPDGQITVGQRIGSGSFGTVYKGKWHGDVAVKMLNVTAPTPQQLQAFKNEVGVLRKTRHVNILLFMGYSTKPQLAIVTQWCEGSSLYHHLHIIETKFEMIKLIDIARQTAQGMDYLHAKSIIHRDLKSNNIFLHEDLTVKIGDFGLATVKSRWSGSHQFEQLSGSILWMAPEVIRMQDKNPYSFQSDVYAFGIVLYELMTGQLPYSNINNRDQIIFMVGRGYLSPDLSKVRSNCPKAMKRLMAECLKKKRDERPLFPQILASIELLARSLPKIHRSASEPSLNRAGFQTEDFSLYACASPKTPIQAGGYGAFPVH

ΔTm at 10 µM (AAK1; read-out: dTm 7): 0.5 °C | ΔTm at 10 µM (ABL1; read-out: dTm 7): 4.1 °C | ΔTm at 10 µM (BRAF; read-out: dTm 7): 8.3 °C | ΔTm at 10 µM (CaMK1d; read-out: dTm 7): 0.4 °C | ΔTm at 10 µM (DCAMKL1; read-out: dTm 7): 1 °C | ΔTm at 10 µM (DRAK1; read-out: dTm 7): 0.6 °C | ΔTm at 10 µM (DRAK2; read-out: dTm 7): 0.1 °C | ΔTm at 10 µM (FES; read-out: dTm 7): 1.1 °C | ΔTm at 10 µM (JNK1; read-out: dTm 7): 0.9 °C | ΔTm at 10 µM (LOK; read-out: dTm 7): 2.1 °C | ΔTm at 10 µM (VRK1; read-out: dTm 7): 0.5 °C
SMILES: CNc1ncc2cc(-c3cc(Br)ccc3Cl)c(=O)n(C[C@H]3OC[C@H](N)CO3)c2n1 [compound 7, 8-(((2r,5r)-5-Amino-1,3-dioxan-2-yl)methyl)-6-(5-bromo-2-chlorophenyl)-2-(methylamino)pyrido[2,3-d]pyrimidin-7(8H)-one]

dTm G-5555 (2) (AAK1; 10 µM, binder): 0.6 °C | dTm G-5555 (2) (ABL1; 10 µM, binder): 5.1 °C | dTm G-5555 (2) (BRAF; 10 µM, binder): 3.9 °C | dTm G-5555 (2) (CaMK1d; 10 µM, binder): 4.5 °C | dTm G-5555 (2) (DCAMKL1; 10 µM, binder): 0.3 °C | dTm G-5555 (2) (DRAK1; 10 µM, binder): -0.7 °C | dTm G-5555 (2) (DRAK2; 10 µM, binder): -0.3 °C | dTm G-5555 (2) (FES; 10 µM, binder): 4.1 °C | dTm G-5555 (2) (LOK; 10 µM, binder): 10.2 °C | dTm G-5555 (2) (VRK1; 10 µM, binder): -0.1 °C
SMILES: CNc1ncc2cc(-c3ccc(-c4cccc(C)n4)cc3Cl)c(=O)n(CC3OCC(N)CO3)c2n1 (stereo not shown) [compound 2, G-5555]

Further lines, the compound ahead of its results:

SMILES: CNc1ncc2cc(-c3cc(F)ccc3F)c(=O)n(CCCCN)c2n1 [compound 5, 8-(4-Aminobutyl)-6-(2,5-difluorophenyl)-2-(methylamino)pyrido[2,3-d]pyrimidin-7(8H)-one]
ΔTm at 10 µM (AAK1; read-out: dTm MR22 (5)): 0.4 °C | ΔTm at 10 µM (ABL1; read-out: dTm MR22 (5)): 6.9 °C | ΔTm at 10 µM (BRAF; read-out: dTm MR22 (5)): 9.2 °C | ΔTm at 10 µM (CaMK1d; read-out: dTm MR22 (5)): -1.2 °C | ΔTm at 10 µM (DRAK1; read-out: dTm MR22 (5)): -0.7 °C | ΔTm at 10 µM (DRAK2; read-out: dTm MR22 (5)): 0.1 °C | ΔTm at 10 µM (JNK1; read-out: dTm MR22 (5)): 5.5 °C | ΔTm at 10 µM (LOK; read-out: dTm MR22 (5)): -0.4 °C | ΔTm at 10 µM (VRK1; read-out: dTm MR22 (5)): 0.4 °C

SMILES: CNc1ncc2cc(-c3ccccc3Cl)c(=O)n(CCCCN)c2n1 [compound 4, 8-(4-Aminobutyl)-6-(2-chlorophenyl)-2-(methylamino)pyrido[2,3-d]pyrimidin-7(8H)-one]
ΔTm at 10 µM (AAK1; read-out: dTm MR21 (4)): 1.6 °C | ΔTm at 10 µM (ABL1; read-out: dTm MR21 (4)): 9.2 °C | ΔTm at 10 µM (BRAF; read-out: dTm MR21 (4)): 12.2 °C | ΔTm at 10 µM (CaMK1d; read-out: dTm MR21 (4)): 2.7 °C | ΔTm at 10 µM (DCAMKL1; read-out: dTm MR21 (4)): 0.2 °C | ΔTm at 10 µM (DRAK1; read-out: dTm MR21 (4)): 0.1 °C | ΔTm at 10 µM (DRAK2; read-out: dTm MR21 (4)): -0.5 °C | ΔTm at 10 µM (FES; read-out: dTm MR21 (4)): 3 °C | ΔTm at 10 µM (JNK1; read-out: dTm MR21 (4)): 0.9 °C | ΔTm at 10 µM (LOK; read-out: dTm MR21 (4)): 5.4 °C | ΔTm at 10 µM (VRK1; read-out: dTm MR21 (4)): -0.4 °C

SMILES: CNc1ncc2cc(-c3cc(Br)ccc3Cl)c(=O)n(CCCCN)c2n1 [compound 6, 8-(4-Aminobutyl)-6-(5-bromo-2-chlorophenyl)-2-(methylamino)pyrido[2,3-d]pyrimidin-7(8H)-one]
ΔTm at 10 µM (AAK1; read-out: dTm 6): 0.7 °C | ΔTm at 10 µM (ABL1; read-out: dTm 6): 4.5 °C | ΔTm at 10 µM (BRAF; read-out: dTm 6): 10.8 °C | ΔTm at 10 µM (CaMK1d; read-out: dTm 6): 2.1 °C | ΔTm at 10 µM (DCAMKL1; read-out: dTm 6): -0.5 °C | ΔTm at 10 µM (DRAK1; read-out: dTm 6): -0.1 °C | ΔTm at 10 µM (DRAK2; read-out: dTm 6): -0.2 °C | ΔTm at 10 µM (FES; read-out: dTm 6): 2.5 °C | ΔTm at 10 µM (JNK1; read-out: dTm 6): 0.2 °C | ΔTm at 10 µM (LOK; read-out: dTm 6): 2.4 °C | ΔTm at 10 µM (VRK1; read-out: dTm 6): 0.3 °C
